Assays:
Format in all cases: cell-based
[1] = system: NCI-H2170 (HER2 wild type) cells; test: Tumor cell line proliferation assay, NCI-H2170 (HER2 wild type), CellTiter-Glo; conditions: Homo sapiens, 72 h, read-out: GI50 NCI H-2170 HER2 wt amp.
Experimental: (§1) For proliferation assays, NCI-H2170 (HER2 wild type), NCI-H2170 HER2 YVMA and EGFR WT dependent A431 cells are used. NCI-H2170 HER2 YVMA or NCI-H2170 cells are seeded into 96-well plates at 750 cells/60 μL in growth media (RPMI ATCC+10% FCS, +Penicillin/Streptomycin). […] Compounds are added by using a HP D3000 Digital Dispenser one day after plating the cells. All treatments are performed in technical triplicates. Treated cells are incubated for 72 h at 37° C. with 5% CO2. CellTiter-Glo® Luminescent Cell Viability Assay (Promega) is performed and chemoluminescence is measured by using the multilabel Plate Reader VICTOR X4. The raw data are imported into and analyzed with the Boehringer Ingelheim proprietary software MegaLab (curve fitting based on the program PRISM, GraphPad Inc.).

[2] = system: Ba/F3 cells expressing EGFR WT; test: Ba/F3 proliferation assay, EGFR WT (EGF dependent), CellTiter-Glo; conditions: Mus musculus, BaF3, EGF instead of IL-3, 72 h, read-out: GI50 BAF3 EGF dep.
Experimental: (§2) Ba/F3 Cell Model Generation and Proliferation Assays
(§3) Plasmids containing HER2 mutants and EGFR WT were obtained from GeneScript. To generate EGFR/HER2-dependent Ba/F3 models, Ba/F3 cells are transduced with retroviruses containing vectors that harbor EGFR WT, HER2 WT or HER2 mutants (YVMA). Platinum-E cells (Cell Biolabs) are used for retrovirus packaging. Retrovirus is added to Ba/F3 cells. To ensure infection, 4 μg/mL polybrene is added and cells are spin-infected. Infection efficiency is confirmed by measuring GFP-positive cells using a cell analyzer. Cells with an infection efficiency of 10% to 20% are further cultivated and puromycin selection with 1 μg/mL is initiated. As a control, parental Ba/F3 cells are used to assess the selection status. Selection is considered successful when parental Ba/F3 cells cultures die. To evaluate the transforming potential of HER2 mutations, the growth medium is no longer supplemented with IL-3. Ba/F3 cells harboring the empty vector are used as a control. A switch from IL-3 to EGF is performed for Ba/F3 cells expressing EGFR WT known for its dependency on EGF ligand. Approximately ten days before conducting the experiments, puromycin is left out. For proliferation assays (data in tables 10 and 12), Ba/F3 cells are seeded into 96-well plates at 5×10^3 cells/100 μL in growth media. Compounds are added by using a HP D3000 Digital Dispenser. All treatments are performed in technical triplicates. Treated cells are incubated for 72 h at 37° C. with 5% CO2. A CellTiter-Glo® Luminescent Cell Viability Assay (Promega) is performed and chemoluminescence is measured by using the multilabel Plate Reader VICTOR X4. The raw data are imported into and analyzed with the Boehringer Ingelheim proprietary software MegaLab (curve fitting based on the program PRISM, GraphPad Inc.).

[3] = system: Ba/F3 cells HER2 mutants (YVMA); test: Ba/F3 proliferation assay, HER2 YVMA, CellTiter-Glo; conditions: Mus musculus, BaF3, 72 h
Experimental: as §2, §3

[4] = system: EGFR WT dependent A431 cells; test: Tumor cell line proliferation assay, EGFR WT dependent A431 cells, CellTiter-Glo; conditions: Homo sapiens, A-431, 72 h, read-out: GI50 A431 EGFR wt amp.
Experimental: as §1

[5] = system: NCI-H2170 HER2 YVMA cells; test: Tumor cell line proliferation assay, NCI-H2170 HER2 YVMA, CellTiter-Glo; conditions: Homo sapiens, 72 h, read-out: GI50 NCI H-2170 HER2 YVMA
Excerpt: HER2 YVMA Tumor Cell Line Model Generation and Proliferation Assays
Homology-directed genome engineering is employed to insert a 12 nucleotide sequence encoding YVMA into Exon 20 of the genomic HER2 locus in NCI-H2170 cells. […] The DNA template containing the HER2 exon 20 YVMA insertion variant was obtained from GenScript. PCR followed by Sanger sequencing is used to confirm the presence of the 12-nucleotide insertion in HER2 Exon 20 resulting in the YVMA amino acid duplication.
as §1

EGFR wild type (WT) = biological target: T1, EGFR wild type (WT) (Homo sapiens, UniProt P00533); test: pEGFR assay: phosphorylation of EGFR at Tyr1068 in HEK cells expressing EGFR WT (AlphaScreen Surefire); conditions: 4 h with compound
T1 construct: expressed in transfected cells; host or cells: human HEK cells (ATCC CRL-1573), retroviral transduction
Experimental: This assay quantifies the phosphorylation of EGFR at Tyr1068 and is used to measure the inhibitory effect of compounds on the transgenic EGFR wild type (WT) protein expressed in HEK cells.
(§4) Transduced cells are selected using puromycin. p-EGFR Tyr1068 is determined using the AlphaScreen Surefire pEGF Receptor (Tyr1068) Assay (PerkinElmer, TGRERS). For the assay, HEK EGFR WT cells are seeded in MEM medium with 10% FBS. […] Subsequently, 60.000 cells/well in 60 μL are added. Cells are incubated with compound for 4 h at 37° C. […] The mixture is incubated at a temperature of 20-25° C. with shaking (700 rpm) for 20 min. After centrifugation, 4 μL of the lysate are transferred to Proxiplates. […] Plates are shaken for 1 min (1400 rpm) and incubated for 2 h at a temperature of (20-25° C.) in the dark. […] Plates are shaken for 1 min (1400 rpm) and incubated for 2 h at a temperature of (20-25° C.) in the dark. Plates are subsequently analyzed using an Envision reader platform. […] IC50 values are computed from these values in the MEGASTAR IC50 application using a 4 parametric logistic model.
This cellular phospho-EGFR (pEGFR) compound dose-response assay quantifies the phosphorylation of EGFR at Tyr1068 in HEK cells expressing EGFR WT. The results of the assay are provided as IC50 values.

HER2 YVMA = biological target: T2, HER2 YVMA (Homo sapiens, UniProt P04626, INS775YVMA); test: pHER2 (ERBB2) YVMA assay: phosphorylation of HER2 YVMA at Tyr1221/1222 in HEK cells (AlphaScreen Surefire); conditions: doxycycline induced, 4 h with compound
T2 construct: expressed in transfected cells; host or cells: human HEK cells, retroviral transduction, doxycycline-inducible expression
Experimental: as §4, with “For” for “Transduced cells are selected using puromycin. p-EGFR Tyr1068 is determined using the AlphaScreen Surefire pEGF Receptor (Tyr1068) Assay (PerkinElmer, TGRERS). For”, “HER2 YVMA” for “EGFR WT”, “FBS. 4 hours prior to compound addition, HER2 YVMA expression is induced using 1 μg/mL Doxycycline.” for “FBS.”, “20-25° C.” for “(20-25° C.)”, “model. […] The results of the assay are provided as IC50 values.” for “model.”

Ba/F3 cells HER2 WT = test: Ba/F3 proliferation assay, HER2 WT, CellTiter-Glo; conditions: Mus musculus, BaF3, 72 h
Experimental: as §2, §3

T1 sequence (P00533 25-1210): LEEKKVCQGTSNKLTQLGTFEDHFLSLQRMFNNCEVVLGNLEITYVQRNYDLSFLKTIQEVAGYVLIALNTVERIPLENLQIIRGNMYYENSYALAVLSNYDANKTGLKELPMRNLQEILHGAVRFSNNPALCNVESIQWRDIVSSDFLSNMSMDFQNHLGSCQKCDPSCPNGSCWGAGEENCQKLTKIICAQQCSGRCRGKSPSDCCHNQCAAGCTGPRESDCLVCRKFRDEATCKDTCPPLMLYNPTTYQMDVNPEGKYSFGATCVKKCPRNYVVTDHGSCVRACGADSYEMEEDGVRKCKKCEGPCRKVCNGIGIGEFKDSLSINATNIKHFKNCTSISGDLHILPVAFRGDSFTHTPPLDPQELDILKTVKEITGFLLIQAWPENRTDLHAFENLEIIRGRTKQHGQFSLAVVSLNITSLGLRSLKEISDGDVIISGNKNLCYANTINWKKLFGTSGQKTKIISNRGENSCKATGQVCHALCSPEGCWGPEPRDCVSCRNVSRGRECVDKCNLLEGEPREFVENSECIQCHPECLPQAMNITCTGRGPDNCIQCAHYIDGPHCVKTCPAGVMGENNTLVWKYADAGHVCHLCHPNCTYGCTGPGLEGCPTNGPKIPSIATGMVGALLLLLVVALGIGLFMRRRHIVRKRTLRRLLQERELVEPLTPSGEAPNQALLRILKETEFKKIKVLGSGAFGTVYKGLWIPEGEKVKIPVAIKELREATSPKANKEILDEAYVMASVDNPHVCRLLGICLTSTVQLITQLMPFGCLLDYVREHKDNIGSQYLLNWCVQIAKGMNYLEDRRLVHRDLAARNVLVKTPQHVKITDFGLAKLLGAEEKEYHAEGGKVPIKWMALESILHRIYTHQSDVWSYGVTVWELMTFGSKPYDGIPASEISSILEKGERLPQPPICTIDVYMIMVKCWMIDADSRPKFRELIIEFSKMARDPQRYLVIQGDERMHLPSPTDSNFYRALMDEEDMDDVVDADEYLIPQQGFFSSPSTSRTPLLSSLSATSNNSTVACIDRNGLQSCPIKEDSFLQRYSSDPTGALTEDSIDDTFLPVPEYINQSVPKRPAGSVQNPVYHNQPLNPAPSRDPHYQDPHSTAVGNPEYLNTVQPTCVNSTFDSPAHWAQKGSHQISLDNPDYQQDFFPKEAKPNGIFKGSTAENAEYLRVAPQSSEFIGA
T2 sequence (P04626 with tags, fused parts or gaps INS775YVMA): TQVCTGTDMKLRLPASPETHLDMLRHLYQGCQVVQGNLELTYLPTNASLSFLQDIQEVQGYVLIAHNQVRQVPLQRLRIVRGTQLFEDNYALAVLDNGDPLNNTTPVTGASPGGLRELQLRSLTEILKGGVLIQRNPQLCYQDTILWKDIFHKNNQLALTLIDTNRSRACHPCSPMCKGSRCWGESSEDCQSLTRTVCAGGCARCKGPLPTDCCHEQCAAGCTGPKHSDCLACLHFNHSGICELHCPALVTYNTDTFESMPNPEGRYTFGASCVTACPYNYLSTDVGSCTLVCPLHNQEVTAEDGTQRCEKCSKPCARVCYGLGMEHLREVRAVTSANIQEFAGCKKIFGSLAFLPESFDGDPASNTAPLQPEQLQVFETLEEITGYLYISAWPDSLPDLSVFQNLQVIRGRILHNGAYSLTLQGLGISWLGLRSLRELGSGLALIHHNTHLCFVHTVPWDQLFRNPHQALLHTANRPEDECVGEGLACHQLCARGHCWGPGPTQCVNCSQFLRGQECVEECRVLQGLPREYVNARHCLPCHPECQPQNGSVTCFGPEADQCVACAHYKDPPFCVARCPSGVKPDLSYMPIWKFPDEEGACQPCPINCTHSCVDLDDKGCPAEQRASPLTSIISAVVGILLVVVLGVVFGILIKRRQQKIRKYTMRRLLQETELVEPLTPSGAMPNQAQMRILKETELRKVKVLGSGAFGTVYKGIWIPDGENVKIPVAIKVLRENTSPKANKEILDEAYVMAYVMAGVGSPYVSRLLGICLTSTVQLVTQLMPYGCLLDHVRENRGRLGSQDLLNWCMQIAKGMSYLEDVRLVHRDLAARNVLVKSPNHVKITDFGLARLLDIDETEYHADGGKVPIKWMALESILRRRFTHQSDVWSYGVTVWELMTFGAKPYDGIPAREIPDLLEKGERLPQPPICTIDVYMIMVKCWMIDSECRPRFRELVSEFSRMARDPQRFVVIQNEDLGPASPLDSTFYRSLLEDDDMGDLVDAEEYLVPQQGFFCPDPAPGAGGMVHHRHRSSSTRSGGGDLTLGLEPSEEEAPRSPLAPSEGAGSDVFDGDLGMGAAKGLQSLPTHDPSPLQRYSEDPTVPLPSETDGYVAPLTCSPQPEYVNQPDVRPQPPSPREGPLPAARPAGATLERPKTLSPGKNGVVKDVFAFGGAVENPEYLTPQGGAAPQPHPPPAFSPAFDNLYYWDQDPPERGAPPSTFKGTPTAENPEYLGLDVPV

Row | SMILES | GI50 [2] [nM] | GI50 [3] [nM] | GI50 [4] [nM] | IC50 (EGFR wild type (WT)) [nM] | IC50 (HER2 YVMA) [nM] | GI50 (Ba/F3 cells HER2 WT) [nM] | GI50 [1] [nM] | GI50 [5] [nM]
1 | C=CC(=O)NC1CCN(c2ncc3ncnc(Nc4ccc(Oc5ccc6c(c5)ncn6C)c(C)c4)c3n2)CC1 [Example I-01] | 1540 | 16 | > 5000 |  | 13 | 1 | 6 | 33
2 | C#Cc1cc(Nc2ncnc3cnc(N4CCC(NC(=O)C=C)CC4)nc23)ccc1Oc1ccc2c(c1)ncn2C [Example I-02] | 3010 | 37 | > 5000 | 628 | 34 | 1 | 13 | 228
3 | C=CC(=O)NC1(C)CCN(c2ncc3ncnc(Nc4ccc(Oc5ccc6c(c5)ncn6C)c(OC)c4)c3n2)CC1 [Example I-04] | > 5000 | 32 | > 5000 | 495 | 26 | 3 | 12 | 99
4 | C=CC(=O)NC1CCN(c2ncc3ncnc(Nc4cc(F)c(Oc5ccn6ncnc6c5)c(Cl)c4)c3n2)CC1 [Example I-06] | > 5000 | 31 | > 5000 | 773 | 44 | 1 | 12 | 215
5 | C=CC(=O)NC1CN(c2ncc3ncnc(Nc4ccc(Oc5ccc6c(c5)ncn6C)c(C)c4)c3n2)C1 [Example I-07] | 1500 | 42 | > 5000 | 1170 | 20 | 3 | 17 | 73
6 | C=CC(=O)NC1CN(c2ncc3ncnc(Nc4ccc(Oc5ccn6ncnc6c5)c(C)c4)c3n2)C1 [Example I-09] | 2240 | 29 | > 5000 | 715 | 26 | 1 | 9 | 75
7 | C#Cc1cc(Nc2ncnc3cnc(N4CC(NC(=O)C=C)C4)nc23)ccc1Oc1ccn2ncnc2c1 [Example I-10] | 1650 | 35 | 1460 | 217 | 24 | 3 | 12 | 126
8 | C=CC(=O)NC1CCN(c2ncc3ncnc(Nc4ccc(Oc5ccn6ncnc6c5)c(C)c4)c3n2)CC1 [Example I-11] | > 2000 | 28 | 1250 | 521 | 22 | 2 | 8 | 172
9 | C=CC(=O)N1CC[C@@H](Nc2ncc3ncnc(Nc4ccc(Oc5ccn6ncnc6c5)c(C)c4)c3n2)C1 [Example I-18] | 3270 | 29 | > 2000 | 137 | 4 |  | 10 | 87
10 | C=CC(=O)N1CCC[C@@H](n2nc(-c3ccc(Oc4ccccc4)cc3)c3c(N)ncnc32)C1 [Ibrutinib, reference compound] | 70 | 44 | 199 |  |  |  | 16 | 132
11 | C=CC(=O)N1CCC(Oc2cc3c(Nc4ccc(Cl)c(Cl)c4F)ncnc3cc2OC)CC1 [Poziotinib, reference compound] | 1 | 2 | 1 |  | 5 | 1 | 1 | 5

Continued, in another order:

Row | GI50 [2] [nM] | GI50 [3] [nM] | GI50 [4] [nM] | IC50 (EGFR wild type (WT)) [nM] | IC50 (HER2 YVMA) [nM] | GI50 (Ba/F3 cells HER2 WT) [nM] | SMILES | GI50 [1] [nM] | GI50 [5] [nM]
12 | 31 | 17 | 403 | 1 | 3 |  | C=CC(=O)Nc1ccc2ncnc(Nc3ccc(OCc4cccc(F)c4)c(Cl)c3)c2c1 [Allitinib, reference compound] | 36 | 203
13 | > 5000 | 38 | > 5000 | 916 | 20 | 2 | C=CC(=O)NC1CCN(c2ncc3ncnc(Nc4ccc(Oc5ccc6c(c5)ncn6C)c(OC)c4)c3n2)CC1 [Example I-03] | 11 | 139
14 | 1880 | 21 | > 5000 | 315 | 10 | 1 | C=CC(=O)NC1CCN(c2ncc3ncnc(Nc4ccc(Oc5ccc6c(c5)ncn6C)c(Cl)c4)c3n2)CC1 [Example I-05] | 8 | 55
15 | 2300 | 36 | 1500 | 336 | 58 | 2 | C=CC(=O)NC1CN(c2ncc3ncnc(Nc4ccc(Oc5ccc6c(c5)ncn6C)c(Cl)c4)c3n2)C1 [Example I-08] | 8 | 44
16 | 14 | 5 | 55 |  |  |  | CCOc1cc2ncc(C#N)c(Nc3ccc(OCc4ccccn4)c(Cl)c3)c2cc1NC(=O)/C=C/CN(C)C [Neratinib, reference compound] | 3 | 37
17 | 1190 | 60 | > 5000 | 317 | 33 |  | C=CC(=O)Nc1ccc2ncnc(Nc3ccc(Oc4ccc5c(c4)ncn5C)c(C)c3)c2c1 [WO 2007/059257 Ex. 185, reference compound] | 108 | 926
